These results are taken from patent US20200377483A1, “NEW ANTI-MALARIAL AGENT” (MMV MEDICINES FOR MALARIA VENTURE, priority 2016, published 2020).

The test system of data set [1] is chloroquine-resistant (K1) strain of P. falciparum. The experiment in a line: In vitro antimalarial activity, K1 strain. In kind it is cell-based. How it is done: (§1) The ability of dispiro 1,2,4-trioxolane derivatives according to the invention to show antimalarial efficacy in vitro and in vivo was tested as described in Charman, et al, 2011, PNAS, 108, 4400-4405 against chloroquine-resistant (K1) and chloroquine-sensitive (NF54) strains of P. falciparum in vitro (Vennerstrom et al. 2004, Nature, 430, 900-904).
(§2) The in vivo activity is shown in P. berghei (Pb) infected mice in terms of the percentage of inhibition of parasitemia following compound administration and the number of survival days.

Data set [2] is described as follows: Solubility in biorelevant media. In kind it is physicochemical. How it is done: Compounds were each accurately weighed into individual screw cap polypropylene tubes and media added to give a nominal minimum target compound concentration of 2.2 mg/mL. Samples were vortex mixed and placed in a 37° C. incubator where they were continually mixed on an orbital shaker (IKA® VXR basic Vibrax® orbital shaker) at 600 rpm. Incubation times were 1 hour for fasted state simulated gastric fluid (FaSSGF) and 5 hours for fasted and fed state simulated intestinal fluids (FaSSIF-V2 and FeSSIF-V2 respectively). Sampling was carried out by centrifuging each sample at 10,000 rpm for 3 minutes, transferring 300 μL, aliquots into fresh Eppendorf tubes and centrifuging these tubes again at 10,000 rpm for 3 minutes. Triplicate aliquots of each final supernatant were diluted 20-fold in 50% aqueous methanol, and then further diluted in 50% aqueous acetonitrile to be within an appropriate concentration range for analysis by LC-MS. LC-MS methods and validation data for the analysis of solubility samples are shown in Table 2 below and the media composition is shown in Table 3.

For data set [3], the system named is artemisinin-resistant P. falciparum isolate from Cambodia. The experiment in a line: Ring-stage survival assay (RSA0-3h). It counts as cell-based. As to conditions: for RSA values ± SEM (survival): 6 h exposure, 66 h post-treatment. How it is done:
Agents Chemother. 57:914-923), but with a few modifications in the drug washing procedure to ensure that no residual peroxide was present during the 66 h post-treatment period. Briefly, 0-3 h post-invasion ring stages were adjusted to 1% parasitemia and 2.5% haematocrit by adding uninfected erythrocytes, transferred in a total volume of 1 mL into 48-well plates and exposed for 6 h to a range of concentrations ([…]) of DHA or one of the compounds tested in this study. After 6 h, cultures were transferred to 15 mL conical tubes, centrifuged at 1400 rpm (400 g) for 2 min and carefully washed 2 times with 12 mL of culture medium. […] After washing, blood pellets were resuspended in complete compound-free culture medium, transferred into new wells and cultured for 66 h in standard conditions. Table 8 below presents the Ring-stage survival assay (RSA) values as tested in Wells et al., 2015, supra for compounds of the invention and comparative compounds.

For data set [4], the system named is chloroquine-sensitive (NF54) strain of P. falciparum. The data set can be described thus: In vitro antimalarial activity, NF54 strain. In kind it is cell-based. How it is done: as §1, §2
The next data set concerns P. berghei. The data set can be described thus: In vivo activity in P. berghei (Pb) infected mice. How it is done: as §1, §2
Data set [5] can be described thus: Solubility in biorelevant media. In kind it is physicochemical. The settings on record: PBS, pH 7.4.
The next data set can be described thus: CLint, H. The settings on record: H (first of H, D, R, M). In kind it is in vitro ADME, human.
The nature of a further data set: CLint, R. In kind it is in vitro ADME, rat. The settings on record: R (third of H, D, R, M).
A short description of another data set: CLint, M. It counts as in vitro ADME, mouse. As to conditions: M (fourth of H, D, R, M).
Data set [6] has as its system 7 CYP isoforms (1A2, 2B6, 2C8, 2C9, 2C19, 2D6, 3A4/5). The experiment in a line: Cyp inhibition IC50, 7 isoforms, human liver microsomes. In kind it is in vitro ADME. (In general: Liver microsomes are vesicles of endoplasmic reticulum, rich in cytochrome P450 enzymes.)
Description: The assessment of time-dependent inhibition was based on measurement of the “IC50 shift”, whereby the IC50 was measured following pre-incubation of test compound (or reference inhibitor) in the absence or presence of NADPH. A 10-fold dilution step was incorporated following the pre-incubation to minimize reversible product inhibition (by potential metabolites of test compound) such that evidence of time-dependent inhibition is more likely to reflect mechanism-based inhibition. The maximum concentration of test compound in the pre-incubation mixture (containing either 1 or 2 mg/mL microsomal protein and 1.0% v/v DMSO) was 200 μM, and the potential for precipitation of test compound was closely monitored at the time of spiking. […] On this basis, it is assumed that test compounds were fully dissolved at all concentrations in the pre-incubation mixtures. Reference inhibitors (both mechanism-based and reversible inhibitors) were included to validate the assay. […]
The next data set in a line: CLint, D. It counts as in vitro ADME, dog. As to conditions: D (second of H, D, R, M).
Data set [7] deals with CYP isoforms (1A2, 2B6, 2C8, 2C9, 2C19, 2D6, 3A4/5). The experiment in a line: Time-dependent CYP inhibition (IC50 shift), CYP isoforms. As to conditions: human liver microsomes, 30 min pre-incubation with or without NADPH. In kind it is in vitro ADME. The procedure:
Time-dependent CYP inhibition can occur as a result of irreversible interactions of a test compound with a CYP450 enzyme (i.e. mechanism-based inhibition; MBI) or, alternatively, by reversible product inhibition (i.e. whereby the metabolite of the test compound is responsible for inhibition of the CYP). The potential for time-dependent CYP inhibition was assessed using CYP-specific metabolic pathways in human liver microsomes by measuring the formation of metabolites known to be formed by individual CYP isoforms (Table 5) according to the following protocol (probe substrates, metabolites and incubation times):
The assessment of time-dependent inhibition was based on measurement of the “IC50 shift”, whereby the IC50 was measured following pre-incubation of test compound (or reference inhibitor) in the absence or presence of NADPH. A 10-fold dilution step was incorporated following the pre-incubation to minimize reversible product inhibition (by potential metabolites of test compound) such that evidence of time-dependent inhibition is more likely to reflect mechanism-based inhibition. The maximum concentration of test compound in the pre-incubation mixture (containing either 1 or 2 mg/mL microsomal protein and 1.0% v/v DMSO) was 200 μM, and the potential for precipitation of test compound was closely monitored at the time of spiking. […]

Molecules are shown by their SMILES. In brackets after ≈: the same amount, converted by molar mass. Several values for one entry are separate records, joined by “and”; a condition that tells them apart may be missing. Equal entries are not always repeated. Where two headings read alike, the source gives them in different places. Marks after values point to notes of the source that are not given here.

For the compound `CC1(C)CC(O)(COc2ccc([C@H]3CC[C@]4(CC3)OOC3(O4)C4CC5CC(C4)CC3C5)cc2)CC(C)(C)N1` (stereo partly drawn) [Compound (1), cis-Adamantane-2-spiro-3′-8′-[4′-[(4′-hydroxy-2′,2′,6′,6′-tetramethyl-4′-piperidinyl)methoxy]phenyl]-1′,2′,4′-trioxaspiro[4.5]decane], in data set [1], the “IC50 K1” value worked out at 1.2 ng/mL (≈ 0.00228 µM). The “Conc. (solubility)” value in data set [2] (FaSSGF, 37° C., 1 hour) was 10.1 µg/mL; in data set [2] (FaSSIF-V2, 37° C., 5 hours), 1516 µg/mL; in data set [2] (FeSSIF-V2, 37° C., 5 hours) it was above 2000 µg/mL; in [5], 10.6 µg/mL. The “RSA values ± SEM (survival)” value in data set [3] (49 nM) worked out at 1.29 ± 1.24%; in data set [3] (88 nM), 0.16 ± 0.23%; in data set [3] (175 nM), 0.11 ± 0.08%; in data set [3] (350 nM) it was 0%; in data set [3] (700 nM), 0%. The “IC50 NF54” value in data set [4] stood at 0.9 ng/mL (≈ 0.00171 µM). Besides, the “% activity (percentage of inhibition of parasitemia)” value with P. berghei (Pb 1 × 10 mg/kg) is reported as 99.1%; with P. berghei (Pb 1 × 30 mg/kg) it was 99.6%. For the same compound, the figures for the Survival days in the data set on P. berghei (Pb 1 × 10 mg/kg) and in the data set with P. berghei (Pb 1 × 30 mg/kg) were 13.6 days and above 30 days, respectively.

Broadly, the solubility is how much of the substance goes into solution per volume. As usually defined, the IC50 is the concentration that inhibits the measured activity by half. The low end stands for greater potency, the high end for weaker potency. `c1cc([C@H]2CC[C@]3(CC2)OO[C@]2(O3)C3CC4CC(C3)CC2C4)ccc1OCCN1CCOCC1` [Compound C1, reference compound]: the “Conc. (solubility)” value was determined as 79.0 µg/mL in data set [2] (FaSSGF, 37° C., 1 hour); 40.6 µg/mL in [2] (FaSSIF-V2, 37° C., 5 hours); 563 µg/mL in [2] (FeSSIF-V2, 37° C., 5 hours). In addition, the solubility at 1 h in [2] (fasted state simulated gastric fluid (FaSSGF), 37 °C, fassgf or other biorelevant, thermodynamic from solid, FaSSGF, 37° C., 1 hour, read-out: Conc. (solubility)) was 51.9 µg/mL (≈ 111 µM). Moreover, the solubility at 5 h in data set [2] (fasted state simulated intestinal fluid (FaSSIF-V2), 37 °C, fassif, thermodynamic from solid, FaSSIF-V2, 37° C., 5 hours, read-out: Conc. (solubility)) is 22.3 µg/mL (≈ 47.5 µM); in [2] (fed state simulated intestinal fluid (FeSSIF-V2), 37 °C, fessif, thermodynamic from solid, FeSSIF-V2, 37° C., 5 hours, read-out: Conc. (solubility)), 557 µg/mL (≈ 1190 µM). The “RSA values ± SEM (survival)” value in data set [3] (88 nM) was found to be 0.93 ± 0.93%; in data set [3] (175 nM) it was 0.73 ± 1.03%; in data set [3] (350 nM), 0.73 ± 1.03%; in [3] (700 nM) it was 0.73 ± 1.03%. This compound registered an IC50 in [4] (Plasmodium falciparum) of 2 ng/mL (≈ 0.00426 µM). The “% activity (percentage of inhibition of parasitemia)” value with P. berghei (Pb 1 × 10 mg/kg) was 99.5%; in the data set on P. berghei (Pb 1 × 30 mg/kg) it was 98.1%. The results for the Survival days with P. berghei (Pb 1 × 10 mg/kg) and in the data set with P. berghei (Pb 1 × 30 mg/kg) were 15.2 days and above 30 days, respectively.

In the case of `c1cc(C2CCC3(CC2)OOC2(O3)C3CC4CC(C3)CC2C4)ccc1OCCC1CCNCC1` (stereo not drawn) [Compound (2), cis-Adamantane-2-spiro-3′-8′-[4′-[2′-(4′-piperidinyl)ethoxy]phenyl]-1′,2′,4′-trioxaspiro [4.5]decane], the “CLint H” value in “CLint, H” was below 7 µL/min/mg. Besides, the “CLint R” value in “CLint, R” is below 7 µL/min/mg. The “IC50 K1” value in data set [1] turned out to be 1.4 ng/mL (≈ 0.00299 µM). Further, the “Conc. (solubility)” value in [2] (FaSSGF, 37° C., 1 hour) was 5.6 µg/mL; in [2] (FaSSIF-V2, 37° C., 5 hours), 293 µg/mL; in data set [2] (FeSSIF-V2, 37° C., 5 hours) it was 1632 µg/mL; in [5], <1^c μg/mL. Also, the “CLint M” value in the data set “CLint, M” was determined as 16 µL/min/mg. In addition, the “RSA values ± SEM (survival)” value was determined as 0.76 ± 0.60% in [3] (49 nM); 0% in [3] (88 nM); 0% in [3] (175 nM); 0% in data set [3] (350 nM); 0% in data set [3] (700 nM). The “growth of the artemisinin-resistant isolate” value in data set [3] (700, 350, 175 and 88 nM) is “completely inhibiting the growth”. For the same compound, the “IC50 NF54” value in [4] was 1.4 ng/mL (≈ 0.00299 µM). The same compound returned an IC50 in data set [6] above 20 µM. The “CLint D” value in “CLint, D” stood at 9 µL/min/mg. Moreover, the “% activity (percentage of inhibition of parasitemia)” value is 99.4% in the data set on P. berghei (Pb 1 × 10 mg/kg) and 99.5% with P. berghei (Pb 1 × 30 mg/kg). In addition, the Survival days was 13.4 days in the data set on P. berghei (Pb 1 × 10 mg/kg) and above 30 days in the data set on P. berghei (Pb 1 × 30 mg/kg). Besides, the “Time Dependent Inhibition” value in data set [7] is given as “none”.

On to `C[C@H]1[C@@H](O)O[C@@H]2O[C@@]3(C)CC[C@H]4[C@H](C)CC[C@@H]1[C@@]24OO3` [DHA, Dihydroartemisinin, reference compound], for which the “RSA values ± SEM (survival)” value in data set [3] (49 nM) is 74% and 73.5 ± 12.3%; in data set [3] (88 nM) it was 60.03 ± 4.99%; in data set [3] (175 nM), 47.94 ± 3.88%; in data set [3] (350 nM), 37.67 ± 3.65%; in data set [3] (700 nM), 33% and 33.02 ± 4.39%.
